# Experimental data from ChEMBL document CHEMBL3885861, “Open TG-GATES”.
# Species on record: Rattus norvegicus
# Assay: Open TG-GATES - Regimen: Daily Repeat
# Type: toxicity, organism-based, Sprague-Dawley
# Set-up: regimen Daily Repeat, gender Male, age 6 weeks
# Conditions: in vivo, po, route gavage; for APTT / Bas / Eos / Fbg / Hb / Ht / Lym / MCHC / MCV / Mono / Neu / PT / Plat / RBC / Ret / WBC: tissue Blood; for KIDNEY_L / KIDNEY_R / KIDNEY_TOTAL: tissue Kidney; for LIVER: tissue Liver; for ALP / ALT / AST / BUN / CRE / Ca / Cl / DBIL / GLC / IP / K / LDH / Na / PL / RALB / TBIL / TG / TP / gamma-GTP: tissue Plasma
# [1] = 300 mg/kg, 72 h, dose level Middle, time 3 day
# [2] = 300 mg/kg, […], dose level Middle, time 7 day
# [3] = 300 mg/kg, […], dose level Middle, time 14 day
# [4] = 300 mg/kg, […], dose level Middle, time 28 day
# [5] = 1000 mg/kg, 72 h, dose level High, time 3 day
# [6] = 1000 mg/kg, […], dose level High, time 7 day
# [7] = 1000 mg/kg, […], dose level High, time 14 day
# [8] = 1000 mg/kg, […], dose level High, time 28 day
smiles,measurement,setting,value
CN(C)C(=N)N=C(N)N [METFORMIN],TERMINAL_BW,[1],223.9 g
same,APTT,[1],17.6 s
same,Bas,[1],0%
same,Eos,[1],1%
same,Fbg,[1],251.8 mg/dL
same,Hb,[1],13.2 g/dL
same,Ht,[1],39.3%
same,Lym,[1],78.2%
same,MCHC,[1],33.6%
same,MCV,[1],63.4 fL
same,Mono,[1],3.2%
same,Neu,[1],17.2%
same,PT,[1],12.7 s
same,Plat,[1],115.7 x10_4/uL
same,RBC,[1],621.4 x10_4/ul
same,Ret,[1],7.1%
same,WBC,[1],94 x10_2/uL
same,KIDNEY_L,[1],1 g
same,KIDNEY_R,[1],1 g
same,KIDNEY_TOTAL,[1],2 g
same,LIVER,[1],11.3 g
same,ALP,[1],1558.4 IU/L
same,ALT,[1],52.2 IU/L
same,AST,[1],78.4 IU/L
same,BUN,[1],15.8 mg/dL
same,CRE,[1],0.2 mg/dL
same,Ca,[1],11.1 mg/dL
same,Cl,[1],104.8 meq/L
same,DBIL,[1],0.016 mg/dL
same,GLC,[1],193.2 mg/dL
same,IP,[1],8.3 mg/dL
same,K,[1],3.9 meq/L
same,LDH,[1],62.2 IU/L
same,Na,[1],141.6 meq/L
same,PL,[1],140.8 mg/dL
same,RALB,[1],2.6 g/dL
same,TBIL,[1],0.038 mg/dL
same,TG,[1],68.2 mg/dL
same,TP,[1],5.6 g/dL
same,gamma-GTP,[1],1 IU/L
same,TERMINAL_BW,[2],256.3 g
same,TERMINAL_BW,[3],308.9 g
same,TERMINAL_BW,[4],387.2 g
same,APTT,[2],16 s
same,Bas,[2],0%
same,Eos,[2],1%
same,Fbg,[2],279.8 mg/dL
same,Hb,[2],13.8 g/dL
same,Ht,[2],41%
same,Lym,[2],77.6%
same,MCHC,[2],33.7%
same,MCV,[2],62.5 fL
same,Mono,[2],3.6%
same,Neu,[2],17.4%
same,PT,[2],12 s
same,Plat,[2],126.1 x10_4/uL
same,RBC,[2],656.2 x10_4/ul
same,Ret,[2],5.6%
same,WBC,[2],77.5 x10_2/uL
same,APTT,[3],17.2 s
same,Bas,[3],0.2%
same,Eos,[3],1.2%
same,Fbg,[3],248.8 mg/dL
same,Hb,[3],14.3 g/dL
same,Ht,[3],41.6%
same,Lym,[3],78.6%
same,MCHC,[3],34.4%
same,MCV,[3],60.4 fL
same,Mono,[3],2.6%
same,Neu,[3],17%
same,PT,[3],12.2 s
same,Plat,[3],116.5 x10_4/uL
same,RBC,[3],690.4 x10_4/ul
same,Ret,[3],4.6%
same,WBC,[3],107 x10_2/uL
same,APTT,[4],19.8 s
same,Bas,[4],0.2%
same,Eos,[4],1%
same,Fbg,[4],261.8 mg/dL
same,Hb,[4],15.3 g/dL
same,Ht,[4],44.3%
same,Lym,[4],79.4%
same,MCHC,[4],34.5%
same,MCV,[4],57 fL
same,Mono,[4],2.6%
same,Neu,[4],16.2%
same,PT,[4],12.2 s
same,Plat,[4],100.1 x10_4/uL
same,RBC,[4],777.2 x10_4/ul
same,Ret,[4],2.5%
same,WBC,[4],112.9 x10_2/uL
same,KIDNEY_L,[2],1 g
same,KIDNEY_R,[2],1 g
same,KIDNEY_TOTAL,[2],2.1 g
same,KIDNEY_L,[3],1.2 g
same,KIDNEY_R,[3],1.2 g
same,KIDNEY_TOTAL,[3],2.4 g
same,KIDNEY_L,[4],1.4 g
same,KIDNEY_R,[4],1.4 g
same,KIDNEY_TOTAL,[4],2.9 g
same,LIVER,[2],12.7 g
same,LIVER,[3],14 g
same,LIVER,[4],16.4 g
same,ALP,[2],1101.6 IU/L
same,ALT,[2],61 IU/L
same,AST,[2],83.2 IU/L
same,BUN,[2],15.6 mg/dL
same,CRE,[2],0.2 mg/dL
same,Ca,[2],10.8 mg/dL
same,Cl,[2],106.2 meq/L
same,DBIL,[2],0.014 mg/dL
same,GLC,[2],182.8 mg/dL
same,IP,[2],8.2 mg/dL
same,K,[2],4.6 meq/L
same,LDH,[2],102.8 IU/L
same,Na,[2],141.8 meq/L
same,PL,[2],144.4 mg/dL
same,RALB,[2],2.7 g/dL
same,TBIL,[2],0.028 mg/dL
same,TG,[2],119.6 mg/dL
same,TP,[2],5.7 g/dL
same,gamma-GTP,[2],0.8 IU/L
same,ALP,[3],1291.2 IU/L
same,ALT,[3],50.4 IU/L
same,AST,[3],73 IU/L
same,BUN,[3],16.4 mg/dL
same,CRE,[3],0.2 mg/dL
same,Ca,[3],10.9 mg/dL
same,Cl,[3],104.8 meq/L
same,DBIL,[3],0.016 mg/dL
same,GLC,[3],190.4 mg/dL
same,IP,[3],7.1 mg/dL
same,K,[3],3.8 meq/L
same,LDH,[3],72.2 IU/L
same,Na,[3],142.4 meq/L
same,PL,[3],157.6 mg/dL
same,RALB,[3],2.7 g/dL
same,TBIL,[3],0.032 mg/dL
same,TG,[3],134.4 mg/dL
same,TP,[3],5.9 g/dL
same,gamma-GTP,[3],1 IU/L
same,ALP,[4],1096.8 IU/L
same,ALT,[4],47.2 IU/L
same,AST,[4],68.8 IU/L
same,BUN,[4],15.6 mg/dL
same,CRE,[4],0.2 mg/dL
same,Ca,[4],11.1 mg/dL
same,Cl,[4],105.6 meq/L
same,DBIL,[4],0.016 mg/dL
same,GLC,[4],187.6 mg/dL
same,IP,[4],6.8 mg/dL
same,K,[4],3.8 meq/L
same,LDH,[4],52 IU/L
same,Na,[4],145.4 meq/L
same,PL,[4],150.4 mg/dL
same,RALB,[4],2.8 g/dL
same,TBIL,[4],0.036 mg/dL
same,TG,[4],158.2 mg/dL
same,TP,[4],6.2 g/dL
same,gamma-GTP,[4],1 IU/L
same,TERMINAL_BW,[5],213.8 g
same,APTT,[5],17.6 s
same,Bas,[5],0%
same,Eos,[5],1%
same,Fbg,[5],223.8 mg/dL
same,Hb,[5],13.4 g/dL
same,Ht,[5],39.4%
same,Lym,[5],72.8%
same,MCHC,[5],34.1%
same,MCV,[5],63.1 fL
same,Mono,[5],4%
same,Neu,[5],22%
same,PT,[5],12.4 s
same,Plat,[5],121.1 x10_4/uL
same,RBC,[5],624.8 x10_4/ul
same,Ret,[5],5.5%
same,WBC,[5],107 x10_2/uL
same,KIDNEY_L,[5],0.9 g
same,KIDNEY_R,[5],0.9 g
same,KIDNEY_TOTAL,[5],1.8 g
same,LIVER,[5],11.6 g
same,ALP,[5],1276.4 IU/L
same,ALT,[5],37.4 IU/L
same,AST,[5],74 IU/L
same,BUN,[5],16.6 mg/dL
same,CRE,[5],0.2 mg/dL
same,Ca,[5],11.1 mg/dL
same,Cl,[5],104 meq/L
same,DBIL,[5],0.012 mg/dL
same,GLC,[5],180.2 mg/dL
same,IP,[5],8.7 mg/dL
same,K,[5],4.1 meq/L
same,LDH,[5],63.4 IU/L
same,Na,[5],140.2 meq/L
same,PL,[5],137.8 mg/dL
same,RALB,[5],2.5 g/dL
same,TBIL,[5],0.032 mg/dL
same,TG,[5],95.8 mg/dL
same,TP,[5],5.4 g/dL
same,gamma-GTP,[5],1.2 IU/L
same,TERMINAL_BW,[6],243 g
same,TERMINAL_BW,[7],288.9 g
same,TERMINAL_BW,[8],357 g
same,APTT,[6],15.3 s
same,Bas,[6],0.2%
same,Eos,[6],0.6%
same,Fbg,[6],254.8 mg/dL
same,Hb,[6],13.8 g/dL
same,Ht,[6],41%
same,Lym,[6],80.4%
same,MCHC,[6],33.7%
same,MCV,[6],61.8 fL
same,Mono,[6],3.2%
same,Neu,[6],15.2%
same,PT,[6],12.1 s
same,Plat,[6],116.4 x10_4/uL
same,RBC,[6],664 x10_4/ul
same,Ret,[6],5.5%
same,WBC,[6],101.5 x10_2/uL
same,APTT,[7],17 s
same,Bas,[7],0%
same,Eos,[7],0.8%
same,Fbg,[7],252.2 mg/dL
same,Hb,[7],14.4 g/dL
same,Ht,[7],41.7%
same,Lym,[7],75.4%
same,MCHC,[7],34.5%
same,MCV,[7],59.5 fL
same,Mono,[7],3.4%
same,Neu,[7],19.6%
same,PT,[7],12.2 s
same,Plat,[7],124 x10_4/uL
same,RBC,[7],702 x10_4/ul
same,Ret,[7],4.4%
same,WBC,[7],121.9 x10_2/uL
same,APTT,[8],17.8 s
same,Bas,[8],0%
same,Eos,[8],1.2%
same,Fbg,[8],258.6 mg/dL
same,Hb,[8],15 g/dL
same,Ht,[8],43.7%
same,Lym,[8],74.6%
same,MCHC,[8],34.3%
same,MCV,[8],57.7 fL
same,Mono,[8],3.2%
same,Neu,[8],20.6%
same,PT,[8],12 s
same,Plat,[8],105.5 x10_4/uL
same,RBC,[8],757.4 x10_4/ul
same,Ret,[8],2.6%
same,WBC,[8],108.4 x10_2/uL
same,KIDNEY_L,[6],1.1 g
same,KIDNEY_R,[6],1 g
same,KIDNEY_TOTAL,[6],2.1 g
same,KIDNEY_L,[7],1.2 g
same,KIDNEY_R,[7],1.1 g
same,KIDNEY_TOTAL,[7],2.3 g
same,KIDNEY_L,[8],1.4 g
same,KIDNEY_R,[8],1.4 g
same,KIDNEY_TOTAL,[8],2.8 g
same,LIVER,[6],12.1 g
same,LIVER,[7],14.4 g
same,LIVER,[8],16.5 g
same,ALP,[6],1316.4 IU/L
same,ALT,[6],44.4 IU/L
same,AST,[6],82.2 IU/L
same,BUN,[6],15 mg/dL
same,CRE,[6],0.2 mg/dL
same,Ca,[6],10.9 mg/dL
same,Cl,[6],104.2 meq/L
same,DBIL,[6],0.012 mg/dL
same,GLC,[6],193.2 mg/dL
same,IP,[6],8.4 mg/dL
same,K,[6],4.4 meq/L
same,LDH,[6],57.4 IU/L
same,Na,[6],140.8 meq/L
same,PL,[6],141.6 mg/dL
same,RALB,[6],2.6 g/dL
same,TBIL,[6],0.024 mg/dL
same,TG,[6],92.2 mg/dL
same,TP,[6],5.5 g/dL
same,gamma-GTP,[6],1 IU/L
same,ALP,[7],1249.8 IU/L
same,ALT,[7],39 IU/L
same,AST,[7],75 IU/L
same,BUN,[7],17.6 mg/dL
same,CRE,[7],0.2 mg/dL
same,Ca,[7],11 mg/dL
same,Cl,[7],103.6 meq/L
same,DBIL,[7],0.008 mg/dL
same,GLC,[7],188.6 mg/dL
same,IP,[7],6.9 mg/dL
same,K,[7],4.1 meq/L
same,LDH,[7],61.2 IU/L
same,Na,[7],141.4 meq/L
same,PL,[7],164 mg/dL
same,RALB,[7],2.8 g/dL
same,TBIL,[7],0.026 mg/dL
same,TG,[7],148.6 mg/dL
same,TP,[7],6 g/dL
same,gamma-GTP,[7],1.2 IU/L
same,ALP,[8],1090.4 IU/L
same,ALT,[8],41.6 IU/L
same,AST,[8],71.4 IU/L
same,BUN,[8],17.4 mg/dL
same,CRE,[8],0.2 mg/dL
same,Ca,[8],11.1 mg/dL
same,Cl,[8],104 meq/L
same,DBIL,[8],0.014 mg/dL
same,GLC,[8],194.2 mg/dL
same,IP,[8],6.7 mg/dL
same,K,[8],3.9 meq/L
same,LDH,[8],50.2 IU/L
same,Na,[8],145.2 meq/L
same,PL,[8],152.6 mg/dL
same,RALB,[8],2.7 g/dL
same,TBIL,[8],0.034 mg/dL
same,TG,[8],148 mg/dL
same,TP,[8],6 g/dL
same,gamma-GTP,[8],1 IU/L
